Source: ChEMBL document CHEMBL3885861, “Open TG-GATES”

Organism: Rattus norvegicus
Experiment: Open TG-GATES - Regimen: Single
Format: toxicity, organism-based, Sprague-Dawley
Parameters: regimen Single, gender Male, age 6 weeks
Conditions: in vivo, iv, 0 mg/kg, route intravenous injection, dose level Control; for APTT / Bas / Eos / Fbg / Hb / Ht / Lym / MCH / MCHC / MCV / Mono / Neu / PT / Plat / RBC / Ret / WBC: tissue Blood; for KIDNEY_L / KIDNEY_R / KIDNEY_TOTAL: tissue Kidney; for LIVER: tissue Liver; for A/G / ALP / ALT / AST / BUN / CRE / Ca / Cl / DBIL / GLC / IP / K / LDH / Na / PL / RALB / TBIL / TC / TG / TP / gamma-GTP: tissue Plasma

Structure (SMILES): CN(C)c1ncnc2c1ncn2[C@@H]1O[C@H](CO)[C@@H](N)[C@H]1O [PUROMYCIN AMINONUCLEOSIDE]
- TERMINAL_BW (3 h): 211.9 g
- APTT (3 h): 22.7 s
- Bas (3 h): 0%
- Eos (3 h): 1%
- Fbg (3 h): 253 mg/dL
- Hb (3 h): 12.7 g/dL
- Ht (3 h): 37.2%
- Lym (3 h): 82.6%
- MCH (3 h): 21.3 pg
- MCHC (3 h): 34.1%
- MCV (3 h): 62.5 fL
- Mono (3 h): 2.2%
- Neu (3 h): 13.6%
- PT (3 h): 16.1 s
- Plat (3 h): 120.5 x10_4/uL
- RBC (3 h): 594.8 x10_4/ul
- Ret (3 h): 7.1%
- WBC (3 h): 122.5 x10_2/uL
- KIDNEY_L (3 h): 0.9 g
- KIDNEY_R (3 h): 0.9 g
- KIDNEY_TOTAL (3 h): 1.9 g
- LIVER (3 h): 9.5 g
- A/G (3 h): 1.2
- ALP (3 h): 1324.8 IU/L
- ALT (3 h): 32.6 IU/L
- AST (3 h): 66.4 IU/L
- BUN (3 h): 13.2 mg/dL
- CRE (3 h): 0.2 mg/dL
- Ca (3 h): 11 mg/dL
- Cl (3 h): 105.2 meq/L
- DBIL (3 h): 0.002 mg/dL
- GLC (3 h): 191.4 mg/dL
- IP (3 h): 7.7 mg/dL
- K (3 h): 4.6 meq/L
- LDH (3 h): 171.2 IU/L
- Na (3 h): 140.4 meq/L
- PL (3 h): 130.2 mg/dL
- RALB (3 h): 2.9 g/dL
- TBIL (3 h): 0.022 mg/dL
- TC (3 h): 68 mg/dL
- TG (3 h): 69 mg/dL
- TP (3 h): 5.3 g/dL
- gamma-GTP (3 h): 1 IU/L
- TERMINAL_BW (6 h): 212.9 g
- APTT (6 h): 22 s
- Bas (6 h): 0%
- Eos (6 h): 1%
- Fbg (6 h): 301.2 mg/dL
- Hb (6 h): 12.7 g/dL
- Ht (6 h): 37.4%
- Lym (6 h): 81.6%
- MCH (6 h): 21.8 pg
- MCHC (6 h): 34.1%
- MCV (6 h): 64 fL
- Mono (6 h): 2.6%
- Neu (6 h): 14%
- PT (6 h): 16 s
- Plat (6 h): 122.7 x10_4/uL
- RBC (6 h): 584.8 x10_4/ul
- Ret (6 h): 8.2%
- WBC (6 h): 100.6 x10_2/uL
- KIDNEY_L (6 h): 0.9 g
- KIDNEY_R (6 h): 0.9 g
- KIDNEY_TOTAL (6 h): 1.9 g
- LIVER (6 h): 9.4 g
- A/G (6 h): 1.3
- ALP (6 h): 1216.4 IU/L
- ALT (6 h): 37.8 IU/L
- AST (6 h): 70 IU/L
- BUN (6 h): 11.4 mg/dL
- CRE (6 h): 0.2 mg/dL
- Ca (6 h): 11.2 mg/dL
- Cl (6 h): 106.4 meq/L
- DBIL (6 h): 0 mg/dL
- GLC (6 h): 188.8 mg/dL
- IP (6 h): 8.3 mg/dL
- K (6 h): 4.3 meq/L
- LDH (6 h): 177.8 IU/L
- Na (6 h): 140.4 meq/L
- PL (6 h): 140.2 mg/dL
- RALB (6 h): 3 g/dL
- TBIL (6 h): 0.022 mg/dL
- TC (6 h): 80 mg/dL
- TG (6 h): 70.6 mg/dL
- TP (6 h): 5.3 g/dL
- gamma-GTP (6 h): 1.4 IU/L
- TERMINAL_BW (9 h): 212.6 g
- APTT (9 h): 21.9 s
- Bas (9 h): 0%
- Eos (9 h): 1%
- Fbg (9 h): 314.6 mg/dL
- Hb (9 h): 12.9 g/dL
- Ht (9 h): 37.9%
- Lym (9 h): 76.2%
- MCH (9 h): 20.7 pg
- MCHC (9 h): 33.9%
- MCV (9 h): 61 fL
- Mono (9 h): 2.8%
- Neu (9 h): 19.2%
- PT (9 h): 16.2 s
- Plat (9 h): 126.3 x10_4/uL
- RBC (9 h): 621.4 x10_4/ul
- Ret (9 h): 7.1%
- WBC (9 h): 94.1 x10_2/uL
- KIDNEY_L (9 h): 1 g
- KIDNEY_R (9 h): 1 g
- KIDNEY_TOTAL (9 h): 1.9 g
- LIVER (9 h): 9.1 g
- A/G (9 h): 1.2
- ALP (9 h): 1259.6 IU/L
- ALT (9 h): 38.2 IU/L
- AST (9 h): 73.2 IU/L
- BUN (9 h): 11.6 mg/dL
- CRE (9 h): 0.1 mg/dL
- Ca (9 h): 11.1 mg/dL
- Cl (9 h): 104.4 meq/L
- DBIL (9 h): 0 mg/dL
- GLC (9 h): 191.6 mg/dL
- IP (9 h): 9.4 mg/dL
- K (9 h): 4.3 meq/L
- LDH (9 h): 149.4 IU/L
- Na (9 h): 140 meq/L
- PL (9 h): 136.6 mg/dL
- RALB (9 h): 3 g/dL
- TBIL (9 h): 0.028 mg/dL
- TC (9 h): 73.8 mg/dL
- TG (9 h): 71.2 mg/dL
- TP (9 h): 5.5 g/dL
- gamma-GTP (9 h): 1.4 IU/L
- TERMINAL_BW (24 h): 221.6 g
- APTT (24 h): 21.5 s
- Bas (24 h): 0%
- Eos (24 h): 0.8%
- Fbg (24 h): 281.4 mg/dL
- Hb (24 h): 12.6 g/dL
- Ht (24 h): 37.2%
- Lym (24 h): 78.8%
- MCH (24 h): 21.1 pg
- MCHC (24 h): 34%
- MCV (24 h): 62.1 fL
- Mono (24 h): 2.8%
- Neu (24 h): 17%
- PT (24 h): 15.9 s
- Plat (24 h): 132.3 x10_4/uL
- RBC (24 h): 597.8 x10_4/ul
- Ret (24 h): 7%
- WBC (24 h): 96.2 x10_2/uL
- KIDNEY_L (24 h): 0.9 g
- KIDNEY_R (24 h): 1 g
- KIDNEY_TOTAL (24 h): 1.9 g
- LIVER (24 h): 10.4 g
- A/G (24 h): 1.3
- ALP (24 h): 1657.8 IU/L
- ALT (24 h): 47.4 IU/L
- AST (24 h): 78.2 IU/L
- BUN (24 h): 19.2 mg/dL
- CRE (24 h): 0.2 mg/dL
- Ca (24 h): 11 mg/dL
- Cl (24 h): 105 meq/L
- DBIL (24 h): 0 mg/dL
- GLC (24 h): 186.6 mg/dL
- IP (24 h): 7 mg/dL
- K (24 h): 4.7 meq/L
- LDH (24 h): 234.6 IU/L
- Na (24 h): 140.4 meq/L
- PL (24 h): 136.4 mg/dL
- RALB (24 h): 3 g/dL
- TBIL (24 h): 0.012 mg/dL
- TC (24 h): 68.4 mg/dL
- TG (24 h): 88.8 mg/dL
- TP (24 h): 5.3 g/dL
- gamma-GTP (24 h): 1.2 IU/L
